Patent US20150306178A1, “METHODS AND COMPOSITIONS FOR TREATING AND PREVENTING TINNITUS” (Auris Medical AG, priority 2014, published 2015)
Several values for one entry are separate records, joined by “and”; a condition that tells them apart may be missing. Equal values may be shown once. Where no end group is shown, it is not given here. [ ]: non-standard residue; d: D form.

What was measured:
ASNHL-related tinnitus = assay: Double-blind, randomized, placebo-controlled phase II study of AM-111 in ASNHL and associated tinnitus; assay type: in vivo, human; conditions: for Number of Subjects with Tinnitus/Number of Subjects with Observation (%): Safety Population; for Complete ASNHL-Related Tinnitus Remission in the Treated Ear, Frequency (%): time point Overall, mITT
Protocol: A double-blind, randomized, placebo-controlled phase II study was conducted to evaluate the efficacy and safety of AM-111 in treating ASNHL and associated tinnitus. Eligible participants were aged 18 to 60 years and suffered from ASNHL (unilateral idiopathic sudden sensorineural hearing loss (ISSNHL), uni- or bilateral acute acoustic trauma (AAT)) with hearing loss of at least 30 dB and onset not more than 48 hours previously. The hearing loss was determined against a reference value: mean hearing threshold at the 3 most affected contiguous test frequencies (pure tone average, PTA) less corresponding mean hearing threshold of the contralateral ear (Plontke et al., 2007). In case of previously asymmetric hearing or bilateral ASNHL, thresholds from a previous audiogram or ISO-7029; 2000 norm values served as reference. The PTA frequencies determined at baseline remained fixed for all evaluations.
Exclusion criteria included history of Meniere's disease, autoimmune or radiation induced hearing […] loss, endolymphatic hydrops or fluctuating hearing loss, suspected perilymph fistula, membrane rupture or retrocochlear lesion, barotrauma, air-bone gap >20 dB in 3 contiguous frequencies, previous ASNHL incident within the past 6 weeks, and acute or chronic otitis media or otitis externa. Women who were breast feeding, pregnant or who planned a pregnancy during the study, or women of childbearing potential who declared being unwilling or unable to practice an effective method of […] contraception were excluded. Written informed consent was obtained from each patient prior to the performance of any study-specific procedures.
At baseline (Day 0), study participants were randomized to receive AM-111 (0.4 or 2.0 mg/mL) or placebo at a 2:1 ratio. The study consisted of a baseline assessment and 4 follow-up visits on Days 3, 7, 30, and 90. Baseline assessments included a general physical examination, vital signs, and a urine pregnancy test for women of childbearing age. At each study visit pure tone hearing thresholds, speech discrimination at 60 and 80 dB, and subjective tinnitus loudness were determined. Those patients reporting tinnitus were asked to rate its loudness “right now” on a numerical scale ranging from 0 (no tinnitus) to 10 (extremely loud).
Approximately 0.25 mL of the study drug was administered on Day 0 by intratympanic (i.t.) injection under local anesthesia through a small myringotomy with the patient's head placed in a position tilted 45° towards the unaffected ear. Patients remained in their reclined or supine position for approximately 30 minutes to allow for diffusion of the active substance into the cochlea. In case of bilateral AAT, only the worst affected ear was treated. Subjects whose PTA recovered <10 dB from baseline to Day 7 were given the option to receive oral prednisolone 50 mg (Ratiopharm, Ulm, Germany) b.i.d. for 5 days.
The sample size was determined based on an expected effect size of 0.6, a two-sided type I error rate of 5% and a statistical power of 80%.
Efficacy analyses were primarily performed on a modified “Intention to treat” (mITT) analysis set (treated patients with PTA measured on Day 3±1 or Day 7+4 days at most) and secondarily on the “Per Protocol” (PP) analysis set. The “Safety Population” analysis set included all patients who received an injection of the study medication. Random imputation was performed for missing PTA values at Days 7 and 30, and missing speech discrimination score (SDS) values at Day 7 based on the preceding value and the mean change observed in the respective treatment group (mITT set).
For continuous efficacy endpoints, analysis of covariance (ANCOVA) models were used including treatment group and initial frequency range as class effects, and baseline values of the respective endpoint as covariate. For the complete recovery rate, a logistic regression model was applied including treatment, initial frequency range, and baseline hearing loss as predictor variables. […]

[1] = test system: models of cochlear insult; conditions: acute noise trauma, acute labyrinthitis, aminoglycoside ototoxicity, bacterial infection, cochlear ischemia, cochlear implantation trauma; cited from earlier work
c-Jun/JNK complex = conditions: in vitro and in intact cells; Holzberg et al. 2003; cited from earlier work

## AM-111: 31-amino acid cell-permeable peptide (SEQ ID NO: 2, all-D), islet-brain 1 effector domain fused to TAT, formulated in a biocompatible hyaluronic acid gel ([dD][dQ][dS][dR][dP][dV][dQ][dP][dF][dL][dN][dL][dT][dT][dP][dR][dK][dP][dR][dP][dP][dR][dR][dR][dQ][dR][dR][dK][dK][dR]G)
ASNHL-related tinnitus; AM-111 0.4 mg/mL single i.t. injection, Day 0, after study drug, 53/56 subjects with ASNHL-related tinnitus
  Number of Subjects with Tinnitus/Number of Subjects with Observation (%): 53/56 (94.6) %
ASNHL-related tinnitus; AM-111 0.4 mg/mL single i.t. injection, Day 3, 51/56 subjects
  Number of Subjects with Tinnitus/Number of Subjects with Observation (%): 51/56 (91.1) %
ASNHL-related tinnitus; AM-111 0.4 mg/mL single i.t. injection, Day 7, 42/55 subjects
  Number of Subjects with Tinnitus/Number of Subjects with Observation (%): 42/55 (76.4) %
ASNHL-related tinnitus; AM-111 0.4 mg/mL single i.t. injection, Day 30, 26/55 subjects
  Number of Subjects with Tinnitus/Number of Subjects with Observation (%): 26/55 (47.3) %
ASNHL-related tinnitus; AM-111 0.4 mg/mL single i.t. injection, Day 90, 19/50 subjects, placebo 56.0%
  Number of Subjects with Tinnitus/Number of Subjects with Observation (%): 38.0% and 19/50 (38.0) %
ASNHL-related tinnitus; AM-111 0.4 mg/mL, All Subjects N = 50 (35 subjects), placebo 54.9%, p=0.151
  Complete ASNHL-Related Tinnitus Remission in the Treated Ear, Frequency (%): 35 (70.0%)
ASNHL-related tinnitus; AM-111 0.4 mg/mL, Mild to Moderate hearing loss subgroup N = 25 (21 subjects), placebo 78.6%, p=0.732
  Complete ASNHL-Related Tinnitus Remission in the Treated Ear, Frequency (%): 21 (84.0%)
ASNHL-related tinnitus; AM-111 2.0 mg/mL single i.t. injection, Day 0, after study drug, 58/59 subjects
  Number of Subjects with Tinnitus/Number of Subjects with Observation (%): 58/59 (98.3) %
ASNHL-related tinnitus; AM-111 2.0 mg/mL single i.t. injection, Day 3, 59/59 subjects
  Number of Subjects with Tinnitus/Number of Subjects with Observation (%): 59/59 (100) %
ASNHL-related tinnitus; AM-111 2.0 mg/mL single i.t. injection, Day 7, 51/58 subjects
  Number of Subjects with Tinnitus/Number of Subjects with Observation (%): 51/58 (87.9) %
ASNHL-related tinnitus; AM-111 2.0 mg/mL single i.t. injection, Day 30, 35/56 subjects
  Number of Subjects with Tinnitus/Number of Subjects with Observation (%): 35/56 (62.5) %
ASNHL-related tinnitus; AM-111 2.0 mg/mL single i.t. injection, Day 90, 28/54 subjects, placebo 56.0%
  Number of Subjects with Tinnitus/Number of Subjects with Observation (%): 51.9% and 28/54 (51.9) %
ASNHL-related tinnitus; AM-111 2.0 mg/mL, All Subjects N = 56 (31 subjects), placebo 54.9%, p=1.000
  Complete ASNHL-Related Tinnitus Remission in the Treated Ear, Frequency (%): 31 (55.4%)
ASNHL-related tinnitus; AM-111 2.0 mg/mL, Mild to Moderate hearing loss subgroup N = 27 (17 subjects), placebo 78.6%, p=0.245
  Complete ASNHL-Related Tinnitus Remission in the Treated Ear, Frequency (%): 17 (63.0%)
ASNHL-related tinnitus; AM-111 Total (0.4 and 2.0 mg/mL groups), Day 0, after study drug, 111/115 subjects
  Number of Subjects with Tinnitus/Number of Subjects with Observation (%): 111/115 (96.5) %
ASNHL-related tinnitus; AM-111 Total (0.4 and 2.0 mg/mL groups), Day 3, 110/115 subjects
  Number of Subjects with Tinnitus/Number of Subjects with Observation (%): 110/115 (95.7) %
ASNHL-related tinnitus; AM-111 Total (0.4 and 2.0 mg/mL groups), Day 7, 93/113 subjects
  Number of Subjects with Tinnitus/Number of Subjects with Observation (%): 93/113 (82.3) %
ASNHL-related tinnitus; AM-111 Total (0.4 and 2.0 mg/mL groups), Day 30, 61/111 subjects
  Number of Subjects with Tinnitus/Number of Subjects with Observation (%): 61/111 (55.0) %
ASNHL-related tinnitus; AM-111 Total (0.4 and 2.0 mg/mL groups), Day 90, 47/104 subjects
  Number of Subjects with Tinnitus/Number of Subjects with Observation (%): 47/104 (45.2) %
ASNHL-related tinnitus; subgroup mild to moderate hearing loss, Fisher's Exact Test
  Complete tinnitus remission, AM-111 treatment groups versus placebo: no statistically significant differences
[1]
  Otoprotection in models of cochlear insult: otoprotective

## Ac-YGRKKRRQRRR-gaba-ILKQSMTLNLADPVGSLKPHLRAKN-NH2 (YGRKKRRQRRRXILKQSMTLNLADPVGSLKPHLRAKN; N-acetyl; GABA spacer; C-terminal amide) [SEQ ID NO: 45, cell-permeable 37-mer peptide of human c-Jun delta domain and HIV-TAT protein transduction domain fused by a GABA spacer]
c-Jun/JNK complex
  Disruption of c-Jun/JNK complex formation and subsequent phosphorylation and activation of c-Jun by JNK: specifically disrupt c-Jun/JNK complex formation
